Source: patent publication US7820837B2, “Condensed ring compound” (Takeda Pharmaceutical Company Limited, priority 2003, dated 2010)

biological target: T1, human GPR40 (Homo sapiens, UniProt O14842); test: Determination of EC50 on human GPR40 (intracellular calcium change by FLIPR in CHO cells stably expressing human GPR40); assay type: cell-based; details: CHO cell line stably expressing human GPR40; changes in intracellular calcium concentration measured by FLIPR (Fluo3-AM); read-out: EC50 (Receptor Function Modulating Action on GPR40)
T1 construct: expressed in transfected cells
Method: Determination of EC50 of the Compound of Example on Human GPR40
For determination of EC50, CHO cell line that stably expressed human GPR40 was used. Unless otherwise indicated, the CHO cell line was cultured using α-MEM medium (Invitrogen) containing 10% fetal calf serum (Invitrogen).
The cells cultured to nearly confluent were rinsed with PBS (Invitrogen) on the previous day of the assay, peeled off with 0.05% Trypsin•EDTA solution (Invitrogen) and recovered by centrifugation. The number of the obtained cells was counted, and the cells were diluted such that 3×10^5 cells were contained per 1 mL of the medium, dispensed to a Black welled 96-well plate (coster) by 100 μL per well and cultured overnight in a CO2 incubator. Various test samples were added to the CHO cells thus prepared, and the changes in the intracellular calcium concentration were measured using FLIPR (Molecular Device). The below-mentioned pre-treatment was applied to measure changes in the intracellular calcium concentration by FLIPR.
An assay buffer for adding a fluorescence dye Fluo3-AM (DOJIN) to the cells, or for washing the cells immediately before FLIPR assay was prepared. To a solution of 1M HEPES (pH 7.4, DOJIN, 20 mL) added to HBSS (Invitrogen, 1000 mL) (hereinafter HBSS/HEPES solution) was added a solution (10 mL) obtained by dissolving probenecid (Sigma, 710 mg) in 1N NaOH (5 mL), and adding and mixing an HBSS/HEPES solution (5 mL), and the resulting solution was used as an assay buffer. Fluo3-AM (50 μg) was dissolved in dimethyl sulfoxide (Wako, 21 μL), and an equivalent amount of 20% pluronic acid (Molecular Probes) was added and mixed. The solution was added to the assay buffer (10.6 mL) supplemented with fetal calf serum (105 μL) to give a fluorescence dye solution. On the previous day of assay, the medium of the CHO cells newly inoculated to the Black welled 96-well plate was removed, the fluorescence dye solution was immediately dispensed by 100 μL per well and the cells were cultured in a CO2 incubator for 1 hr to allow intake of the fluorescence dye by the cells. The cells after the culture were washed with the above-mentioned assay buffer and set on FLIPR. The test sample was diluted with DMSO in advance, dispensed to polypropylene 96-well plate (sample plate) by 2 μL, and cryopreserved at −20° C. To the thawed sample plate was added an assay buffer containing 0.015% CHAPS (DOJIN) by 198 μL, and simultaneously set on FLIPR together with the cell plate. After the aforementioned pre-treatment, changes in the intracellular calcium concentration upon addition of various test samples were measured by FLIPR.

T1 sequence (O14842 whole entry): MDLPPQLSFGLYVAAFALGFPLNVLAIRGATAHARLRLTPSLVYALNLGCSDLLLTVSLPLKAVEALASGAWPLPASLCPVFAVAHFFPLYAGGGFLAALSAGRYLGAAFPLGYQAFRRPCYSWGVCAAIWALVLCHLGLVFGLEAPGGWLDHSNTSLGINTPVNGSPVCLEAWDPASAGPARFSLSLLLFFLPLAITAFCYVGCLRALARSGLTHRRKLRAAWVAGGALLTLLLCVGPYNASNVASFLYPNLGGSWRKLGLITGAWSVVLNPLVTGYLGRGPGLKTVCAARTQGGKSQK

EC50 | Structure (SMILES)
< 100 nM | Cc1cc(OCc2ccccc2)cc(C)c1-c1cccc(COc2ccc3c(c2)OCC3CC(=O)O)c1 (stereo not drawn) [Example 70, (6-{[4′-(benzyloxy)-2′,6′-dimethylbiphenyl-3-yl]methoxy}-2,3-dihydro-1-benzofuran-3-yl)acetic acid]
< 100 nM | O=C(O)CC1CCc2cc(OCc3cccc(Oc4ccccc4)c3)ccc21 (stereo not drawn) [Example 15, {5-[(3-phenoxybenzyl)oxy]-2,3-dihydro-1H-inden-1-yl}acetic acid]
< 100 nM | CCCN(Cc1ccc(COc2ccc3c(c2)OCC3CC(=O)O)cc1)c1nc(-c2ccccc2)cs1 (stereo not drawn) [Example 35, {6-[(4-{[(4-phenyl-1,3-thiazol-2-yl)(propyl)amino]methyl}benzyl)oxy]-2,3-dihydro-1-benzofuran-3-yl}acetic acid]
< 100 nM | O=C(O)CC1CCCc2nc(SCc3cccc(Oc4ccccc4)c3)sc21 (stereo not drawn) [Example 78, {2-[(3-phenoxybenzyl)thio]-4,5,6,7-tetrahydro-1,3-benzothiazol-7-yl}acetic acid]
< 100 nM | O=C(O)CC1CCCc2cc(OCc3cccc(Oc4ccccc4)c3)ccc21 (stereo not drawn) [Example 6, (6-((3-phenoxybenzyl)oxy)-1,2,3,4-tetrahydro-1-naphthalenyl)acetic acid]
< 1000 nM | CCCN(Cc1ccc(COc2ccc3c(c2)CCCC3CC(=O)O)cc1)c1nc(-c2ccccc2)cs1 (stereo not drawn) [Example 19, {6-[(4-{[(4-phenyl-1,3-thiazol-2-yl)(propyl)amino]methyl}benzyl)oxy]-1,2,3,4-tetrahydronaphthalen-1-yl}acetic acid]
< 100 nM | Cc1cccc(C)c1-c1cccc(COc2ccc3c(c2)CCCC3CC(=O)O)c1 (stereo not drawn) [Example 11, {6-[(2′,6′-dimethylbiphenyl-3-yl)methoxy]-1,2,3,4-tetrahydronaphthalen-1-yl}acetic acid]
< 1000 nM | Cc1cccc(C)c1-c1cccc(COc2ccc3c(c2)CCCCC3CC(=O)O)c1 (stereo not drawn) [Example 25, {2-[(2′,6′-dimethylbiphenyl-3-yl)methoxy]-6,7,8,9-tetrahydro-5H-benzo[7]annulen-5-yl}acetic acid]
< 100 nM | Cc1cccc(C)c1-c1cccc(COc2ccc3c(c2)CCC3CC(=O)O)c1 (stereo not drawn) [Example 17, {5-[(2′,6′-dimethylbiphenyl-3-yl)methoxy]-2,3-dihydro-1H-inden-1-yl}acetic acid]
< 100 nM | O=C(O)CC1COc2cc(OCc3ccc(Cn4c(-c5ccccc5)cc5ccccc54)cc3)ccc21 (stereo not drawn) [Example 66, [6-({4-[(2-phenyl-1H-indol-1-yl)methyl]benzyl}oxy)-2,3-dihydro-1-benzofuran-3-yl]acetic acid]
< 100 nM | Cc1ccc2ccccc2c1-c1cccc(COc2ccc3c(c2)OCC3CC(=O)O)c1 (stereo not drawn) [Example 47, (6-{[3-(2-methyl-1-naphthyl)benzyl]oxy}-2,3-dihydro-1-benzofuran-3-yl)acetic acid]
< 1000 nM | O=C(O)CC1COc2cc(OCc3ccc(CN(CCc4ccccc4)c4nc(-c5ccccc5)cs4)cc3)ccc21 (stereo not drawn) [Example 73, calcium {6-[(4-{[(2-phenylethyl)(4-phenyl-1,3-thiazol-2-yl)amino]methyl}benzyl)oxy]-2,3-dihydro-1-benzofuran-3-yl}acetate]
< 100 nM | Cc1cccc(C)c1-c1cccc(COc2ccc3c(c2)OCCC(C(=O)O)C3)c1 (stereo not drawn) [Example 13, 8-[(2′,6′-dimethylbiphenyl-3-yl)methoxy]-2,3,4,5-tetrahydro-1-benzoxepine-4-carboxylic acid]
< 100 nM | Cc1cccc(C)c1-c1cc(COc2ccc3c(c2)OCC3CC(=O)O)ccc1OCc1ccccc1 (stereo not drawn) [Example 75, (6-{[6-(benzyloxy)-2′,6′-dimethylbiphenyl-3-yl]methoxy}-2,3-dihydro-1-benzofuran-3-yl)acetic acid]
< 100 nM | Cc1cccc(C)c1-c1cccc(COc2ccc3c(c2)OCC3CC(=O)O)c1 (stereo not drawn) [Example 33, {6-[(2′,6′-dimethylbiphenyl-3-yl)methoxy]-2,3-dihydro-1-benzofuran-3-yl}acetic acid]
< 1000 nM | CCCN(Cc1ccc(COc2ccc3c(c2)OCCC(C(=O)O)C3)cc1)c1nc(-c2ccccc2)cs1 (stereo not drawn) [Example 21, 8-[(4-{[(4-phenyl-1,3-thiazol-2-yl)(propyl)amino]methyl}benzyl)oxy]-2,3,4,5-tetrahydro-1-benzoxepine-4-carboxylic acid]
< 1000 nM | C/C(=C\COc1ccc2c(c1)OCC2CC(=O)O)c1ccc2c(c1)CCCC2 (stereo not drawn) [Example 125, (6-{[(2E)-3-(5,6,7,8-tetrahydro-2-naphthalenyl)-2-buten-1-yl]oxy}-2,3-dihydro-1-benzofuran-3-yl)acetic acid]

Structure (SMILES) | EC50
CCCCOCCOc1ccc(-c2cccc(COc3ccc4c(c3)OCC4CC(=O)O)c2)c(C)c1 (stereo not drawn) [Example 58, (6-{[4′-(2-butoxyethoxy)-2′-methylbiphenyl-3-yl]methoxy}-2,3-dihydro-1-benzofuran-3-yl)acetic acid] | < 100 nM
